Patent US20120258938A1, “Enzymatic Production or Chemical Synthesis and Uses for 5,7-Dienes and UVB Conversion Products Thereof” (priority 2008, published 2012)

Assays:
[1] = tested on: human dermal fibroblast line; assay: TGF-b1 induced hyaluronan synthesis by dermal fibroblasts; format: cell-based; conditions: hrTGF-b1 5 ng/ml, secosteroids at 10^−10M
Text: There were found no significant differences in fibroblast numbers per well and no significant differences in trypan blue exclusion between control wells vs those with secosteroids range 95-100% (data not shown).

Human dermal fibroblasts = assay: TGF-b1 induced collagen protein production by dermal fibroblasts; format: cell-based; conditions: collagenase sensitive protein; for Collagen CPM/Well (mean ± SEM) × 10^−5 FB: hrTGF-b1 5 ng/ml, secosteroids at 10^−10M, 3[H]-proline
Experimental: Human dermal fibroblasts grown from explant skin cultures at less than 10 subpassages were plated at 5×10^4 cells per well in 24 well Costar tissue culture plates and were grown to confluency. Complete MEM was then changed to serum free Complete MEM without non-essential amino acids. After 24 hours, culture medium was changed (450 μl/well) to the same and secosteroids listed in Table 14 were added in 10 μl absolute alcohol (ETOH) to a final concentration of 10^−9 and M, 3 replicate wells each. Vehicle control wells (n=6) contained 10 μl (ETOH). After 2 hour pre-incubation, hr TGF-b1 (R and D systems) was added to each well except ETOH wells at a final concentration of 5 ng/ml. After 48 hours of culture, plate wells were paused with 1μ Cl ^3[H]-proline. After 24 hours, culture supernatants were harvested and collagenase sensitive protein was determined as previously described (44).

[2] = tested on: SK Mel 188 human melanoma cells; assay: Soft agar colony formation, SKMEL 188 melanoma; format: cell-based; conditions: for colony formation in soft agar versus vehicle control: SKMEL 188, 10 nM
Experimental: Growth and survival of prostate cancer cells (PC3) and melanoma cells SKMEL 188 and AbC1 was determined by following their ability to form colonies in soft agar. Cells growing in monolayer culture were trypsinized and resuspended (1,000 cells/well) in 0.25 ml medium containing 0.4% agarose and 5% charcoal stripped serum (HyClone).
Cell suspensions were added to 0.8% agar layer in 24 well plates. […] Each condition was tested in quadruplicate. An ethanol solvent control (amount of ethanol equivalent to test) as well as a media-only control was included in the assay. Cells were allowed to grow at 37° with 5% CO2 over two weeks with secosteroids in fresh media (100 μL) being added after every 72 h. Soft agar colonies were scored and stained with 0.5 mg/ml MTT reagent (Promega), 500 μL/well after two weeks. Colonies were then counted under the microscope and number of units was calculated as number of colonies formed divided by the number of cells seeded×100.

cytochrome P450scc = target: T1, cytochrome P450scc (Bos taurus, UniProt P00189); assay: Metabolism by cytochrome P450scc in cyclodextrin
T1 sequence (P00189 40-520): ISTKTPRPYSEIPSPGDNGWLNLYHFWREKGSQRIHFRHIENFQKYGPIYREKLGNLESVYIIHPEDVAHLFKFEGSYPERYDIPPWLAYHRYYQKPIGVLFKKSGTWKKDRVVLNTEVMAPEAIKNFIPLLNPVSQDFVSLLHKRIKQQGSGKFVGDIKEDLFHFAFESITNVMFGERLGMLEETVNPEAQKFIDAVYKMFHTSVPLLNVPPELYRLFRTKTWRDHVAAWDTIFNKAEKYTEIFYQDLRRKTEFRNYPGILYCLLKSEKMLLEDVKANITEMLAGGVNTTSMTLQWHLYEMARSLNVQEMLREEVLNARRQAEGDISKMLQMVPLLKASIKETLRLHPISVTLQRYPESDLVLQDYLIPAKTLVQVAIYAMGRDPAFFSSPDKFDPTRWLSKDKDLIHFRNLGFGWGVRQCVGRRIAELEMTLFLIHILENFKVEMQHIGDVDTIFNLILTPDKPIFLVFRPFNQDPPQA
Experimental: Adrenodoxin was expressed in Escherichia coli and purified as described before (41). […] Metabolites were analysed using a Perkin Elmer HPLC equipped with a C18 column (Brownlee Aquapore, 22 cm×4.6 mm, particle size 7 μm).

HaCaT keratinocytes = assay: [3H]-thymidine DNA synthesis in HaCaT keratinocytes; format: cell-based, human; conditions: HaCaT
Experimental: HaCaT keratinocytes were plated in 96-well plates at the density of 10,000 cells/well in DMEM (Cellgro, Herndon Va.) containing 5% charcoal treated fetal bovine serum (Hyclone, Logan, Utah), 1% antibiotic solution (PSA, Sigma, St. Louis, […].). Next day, media were changed and vehicle (ethanol) or secosteroids added. Cells were incubated with compounds for 48 hours. [^3H]-thymidine (Amersham Biosciences, Picataway, N.Y.) was added to the final concentration of 1 μCi/mL medium for last 12 hours of incubation. Media were then discarded, cells detached with trypsin and harvested on a glass fiber filter (Packard, Meriden, Calif.). Radioactivity was measured with a beta counter (Direct Beta-Counter Matrix 9600; Packard).
To measure DNA synthesis, keratinocytes, melanoma or prostate cancer cells were plated in 96-well plates. After overnight incubation tested compounds were added to the medium to achieve final concentrations 10^−7-10^−10 [M]. 100 μl of medium per well containing vitamin D3 compound was added to the cells. After 36 hours of incubation [3H]-thymidine (specific activity 88.0 Ci/mmol; Amersham Biosciences, Picataway, N.Y., USA) was added at 1 μCi/mL medium. After 12 hours, media were discarded, cells detached with trypsin and harvested on a glass fiber filter (Packard, Meriden, Calif., USA). 3H-radioactivity was measured with a beta counter (Direct Beta-Counter Matrix 9600; Packard).
HaCaT keratinocytes were plated out in 24-well plates, 50,000 cells/well. […] After 4 h media were discarded, cells washed with cold phosphate-buffered saline and incubated in 10% trichloroacetic acid for 30 min. Cells were washed again with phosphate-buffered saline, 100 μl 1.0 M NaOH was added to each well and plates incubated for 30 min at 30° C. The supernatant was collected and the ^3H-radioactivity measured by scintillation counting using a Direct Beta-Counter Matrix 9600 (Packard). The [^3H]-thymidine incorporation into DNA was measured separately for each well and the results entered into the calculation as the mean of 6 wells for each condition in a series of six experiments (n=36). Data were analyzed with GraphPad Prizm Version 4.0 (GraphPad Software Inc., San Diego, Calif., USA) using t tests. Differences were considered significant when p<0.05.

Compound: 1,25 (OH)2 D3
- Hyaluronan CPM/Well (mean ± SEM) × 10^−5 FB [1]: 297 ± 18 CPM/Well × 10^−5 FB
- Collagen CPM/Well (mean ± SEM) × 10^−5 FB (Human dermal fibroblasts): 310 ± 100 CPM/Well × 10^−5 FB

Compound: C=C1C(=CC=C2CCCC3(C)C2CCC3C(C)(O)CCC(O)C(C)C)CC(O)CC1O (stereo not drawn) [1,20,24(OH)2D3, (5Z,7E)-9,10-secocholesta-5,7,10(19)-triene-1α,3β,20,24-tetrol]
- colony formation in soft agar versus vehicle control [2]: greatly inhibited colony formation

Compound: C=C1C(=CC=C2CCCC3(C)C2CCC3C(C)(O)CCCC(C)(C)O)CC(O)CC1O (stereo not shown) [1,20,25(OH)2D3, 1,20,25-trihydroxycholecalciferol]
- colony formation in soft agar versus vehicle control [2]: greatly inhibited colony formation

Compound: C=C1/C(=C\C=C2/CCC[C@]3(C)[C@@H]([C@H](C)CCCC(C)C)CC[C@@H]23)C[C@@H](O)C[C@@H]1O [1α-hydroxycholecalciferol, (5Z,7E)-9,10-secocholesta-5,7,10(19)-triene-1α,3β-diol]
- Km (cytochrome P450scc): 41 ± 6 µM
- kcat (cytochrome P450scc; substrate in 0.45% cyclodextrin): 1.3±0.1 mol/min/mol P450scc

Compound: CC(O)C1(O)CCC2C3=CC=C4CC(O)CCC4(C)C3CCC21C (stereo not shown) [17,20 R(OH)27DHP]
- Hyaluronan CPM/Well (mean ± SEM) × 10^−5 FB [1]: 607 ± 127 CPM/Well × 10^−5 FB
- Collagen CPM/Well (mean ± SEM) × 10^−5 FB (Human dermal fibroblasts): 173 ± 11 CPM/Well × 10^−5 FB

Compound: CC(O)C1(O)CCC2C3=CC=C4CC(O)CCC4(C)C3CCC21C (stereo not shown) [17,20 S(OH)27DHP]
- Hyaluronan CPM/Well (mean ± SEM) × 10^−5 FB [1]: 227 ± 53 CPM/Well × 10^−5 FB
- Collagen CPM/Well (mean ± SEM) × 10^−5 FB (Human dermal fibroblasts): 213 ± 17 CPM/Well × 10^−5 FB

Compound: CC(O)C1(O)CCC2C3=CC=C4CC(O)CCC4(C)C3CCC21C (stereo not shown) [17,20(OH)27DHP]
- TGF-b1 induced collagen protein production (Human dermal fibroblasts; [3H]-proline): inhibited TGF-b1 induced collagen protein production

Compound: C[C@]12CC[C@H]3C(=CC=C4C[C@@H](O)CC[C@@]43C)[C@@H]1CC[C@@H]2C(=O)O [17-COOH, (5Z,7E)-3β-hydroxy-androsta-5,7-diene-17β-carboxylic acid]
- DNA synthesis (HaCaT keratinocytes; 72 hrs, 0.01-100 nM): DNA synthesis was inhibited at all concentrations

Compound: C=C1CCC(O)CC1=CC=C1CCCC2(C)C1CCC2(O)C(C)(O)CC(O)CC(C)C (stereo not drawn) [17α,20,23-trihydroxycholecalciferol, (5Z,7E)-9,10-secocholesta-5,7,10(19)-triene-3β,17α,20,23-tetrol]
- keratinocyte proliferation compared with 1α,25-dihydroxycholecalciferol (HaCaT keratinocytes; 48 h): inhibit keratinocyte proliferation more potently than the control compound

Compound: C=C1CCC(O)CC1=CC=C1CCCC2(C)C1CCC2C(C)(O)CCC(O)C(C)C (stereo not drawn) [20,24(OH)2D3, (5Z,7E)-9,10-secocholesta-5,7,10(19)-triene-3β,20,24-triol]
- colony formation in soft agar versus vehicle control [2]: greatly inhibited colony formation

Compound: C=C1CCC(O)CC1=CC=C1CCCC2(C)C1CCC2C(C)(O)CCCC(C)(C)O (stereo not drawn) [20,25(OH)2D3, (5Z,7E)-9,10-secocholesta-5,7,10(19)-triene-3β,20,25-triol]
- colony formation in soft agar versus vehicle control [2]: greatly inhibited colony formation

Compound: C=C1CCC(O)CC1=CC=C1CCCC2(C)C1CCC2C(C)(O)CCCC(C)CO (stereo not drawn) [20,26(OH)2D3, (5Z,7E)-9,10-secocholesta-5,7,10(19)-triene-3β,20,26-triol]
- colony formation in soft agar versus vehicle control [2]: greatly inhibited colony formation

Compound: CC(=O)[C@H]1CC[C@H]2C3=CC=C4C[C@@H](O)CC[C@]4(C)[C@H]3CC[C@]12C [compound 1, 3β-hydroxypregna-5,7-dien-20-one]
- Hyaluronan CPM/Well (mean ± SEM) × 10^−5 FB [1]: 230 ± 34 CPM/Well × 10^−5 FB
- Collagen CPM/Well (mean ± SEM) × 10^−5 FB (Human dermal fibroblasts): 292 ± 31 CPM/Well × 10^−5 FB

Compound: (5Z,7E)-9,10-secoandrosta-5,7,10(19)-trien-3β-ol [aD3]
- colony formation on soft agar ([2]; SKMEL-188, dose dependent): suppress colony formation on soft agar
